Laboratory results from ChEMBL document CHEMBL5356958, “Discovery of a Highly Potent and Selective MYOF Inhibitor with Improved Water Solubility for the Treatment of Gastric Cancer” (J Med Chem, 2023).
Values after ≈ are worked out from the molar mass of the structure shown. Active and inactive are the calls of the source. No cut-off for these calls is given here.

Columns and labels:
MKN-45 [1] = experiment: Antiproliferative activity against human MKN-45 cells incubated for 48 hrs by SRB assay; format: functional, cell-based; conditions: MKN-45, 48 h
[2] = Aqueous solubility of compound in PBS at pH 7.4; format: physicochemical
[3] = Aqueous solubility of compound in PBS at pH 9; format: physicochemical
Myoferlin = Myoferlin (Homo sapiens, UniProt Q9NZM1); experiment: Binding affinity to MYOF in human MKN45 cells at 50 to 100 uM incubated for 1 hr by CETSA; format: cell-based; conditions: MKN-45, dose 50-100 µM
Sequence of Myoferlin (Q9NZM1 whole entry): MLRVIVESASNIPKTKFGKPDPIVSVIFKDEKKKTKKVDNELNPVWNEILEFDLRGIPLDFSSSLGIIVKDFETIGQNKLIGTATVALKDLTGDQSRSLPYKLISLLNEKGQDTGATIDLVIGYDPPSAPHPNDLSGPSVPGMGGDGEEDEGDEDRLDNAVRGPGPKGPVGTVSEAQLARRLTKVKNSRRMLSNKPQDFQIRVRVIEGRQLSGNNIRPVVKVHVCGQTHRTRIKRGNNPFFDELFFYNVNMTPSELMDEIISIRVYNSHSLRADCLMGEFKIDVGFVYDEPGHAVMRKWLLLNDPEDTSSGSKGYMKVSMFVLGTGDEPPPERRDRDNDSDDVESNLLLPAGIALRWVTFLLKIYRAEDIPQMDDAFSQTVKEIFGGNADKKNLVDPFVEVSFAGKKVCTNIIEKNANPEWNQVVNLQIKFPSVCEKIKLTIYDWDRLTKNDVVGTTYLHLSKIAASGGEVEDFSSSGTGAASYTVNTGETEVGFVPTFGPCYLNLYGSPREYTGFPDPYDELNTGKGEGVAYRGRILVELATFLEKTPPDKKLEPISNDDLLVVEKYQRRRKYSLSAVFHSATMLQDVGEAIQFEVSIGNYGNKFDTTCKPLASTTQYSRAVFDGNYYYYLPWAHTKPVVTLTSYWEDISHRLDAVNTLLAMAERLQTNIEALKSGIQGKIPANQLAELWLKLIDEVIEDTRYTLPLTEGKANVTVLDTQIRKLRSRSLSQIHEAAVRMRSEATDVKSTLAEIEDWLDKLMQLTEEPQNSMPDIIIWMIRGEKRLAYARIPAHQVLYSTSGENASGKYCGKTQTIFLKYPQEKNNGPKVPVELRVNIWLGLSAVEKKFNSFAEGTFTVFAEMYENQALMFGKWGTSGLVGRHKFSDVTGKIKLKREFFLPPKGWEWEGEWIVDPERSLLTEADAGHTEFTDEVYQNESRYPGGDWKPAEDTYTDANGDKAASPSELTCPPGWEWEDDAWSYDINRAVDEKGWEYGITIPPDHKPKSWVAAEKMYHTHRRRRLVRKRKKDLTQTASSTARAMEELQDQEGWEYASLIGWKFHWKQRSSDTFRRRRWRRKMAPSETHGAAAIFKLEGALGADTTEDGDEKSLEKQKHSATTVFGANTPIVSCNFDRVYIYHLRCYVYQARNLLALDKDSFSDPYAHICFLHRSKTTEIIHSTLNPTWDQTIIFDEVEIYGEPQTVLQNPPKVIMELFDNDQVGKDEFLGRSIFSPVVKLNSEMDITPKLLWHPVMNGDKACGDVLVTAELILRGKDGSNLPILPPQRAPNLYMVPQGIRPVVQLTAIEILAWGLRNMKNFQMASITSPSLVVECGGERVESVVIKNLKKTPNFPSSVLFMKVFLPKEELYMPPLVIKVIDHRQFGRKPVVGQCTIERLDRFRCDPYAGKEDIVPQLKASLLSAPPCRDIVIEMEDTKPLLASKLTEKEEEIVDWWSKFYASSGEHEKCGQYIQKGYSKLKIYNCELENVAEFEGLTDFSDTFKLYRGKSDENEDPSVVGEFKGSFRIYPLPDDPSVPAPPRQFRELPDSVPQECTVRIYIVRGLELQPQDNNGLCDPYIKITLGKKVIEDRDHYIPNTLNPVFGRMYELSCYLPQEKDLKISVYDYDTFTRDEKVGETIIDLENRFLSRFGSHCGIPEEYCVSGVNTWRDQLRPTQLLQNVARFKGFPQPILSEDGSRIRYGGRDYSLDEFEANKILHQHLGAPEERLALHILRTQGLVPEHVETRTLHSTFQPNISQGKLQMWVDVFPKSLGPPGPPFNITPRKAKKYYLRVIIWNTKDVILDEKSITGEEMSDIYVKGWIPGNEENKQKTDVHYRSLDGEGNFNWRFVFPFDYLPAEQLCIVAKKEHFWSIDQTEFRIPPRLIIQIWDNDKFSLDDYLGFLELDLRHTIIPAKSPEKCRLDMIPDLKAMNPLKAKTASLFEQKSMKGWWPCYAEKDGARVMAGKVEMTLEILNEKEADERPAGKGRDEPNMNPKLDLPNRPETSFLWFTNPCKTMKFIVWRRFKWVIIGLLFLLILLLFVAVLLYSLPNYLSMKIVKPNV

MKN-45 [4] = experiment: Antiproliferative activity against MYOF knocked down human MKN-45 cells incubated for 48 hrs by SRB assay; format: functional, cell-based
BGC-823 = experiment: Antiproliferative activity against human BGC-823 cells incubated for 48 hrs by SRB assay; format: functional, cell-based; conditions: BGC-823, 48 h
AGS = experiment: Antiproliferative activity against human AGS cells incubated for 48 hrs by SRB assay; format: functional, cell-based
SGC-7901 = experiment: Antiproliferative activity against human SGC-7901 cells incubated for 48 hrs by SRB assay; format: functional, cell-based; conditions: SGC-7901, 48 h
MFC = experiment: Antiproliferative activity against MFC cells incubated for 48 hrs by SRB assay; format: functional, cell-based; conditions: Mus musculus
ES-2 = experiment: Antiproliferative activity against human ES2 cells incubated for 48 hrs by SRB assay; format: functional, cell-based; conditions: ES-2, 48 h
BXPC-3 = experiment: Antiproliferative activity against human BXPC-3 cells incubated for 48 hrs by SRB assay; format: functional, cell-based; conditions: BXPC-3, 48 h
SK-HEP1 = experiment: Antiproliferative activity against human SK-HEP1 cells incubated for 48 hrs by SRB assay; format: functional, cell-based; conditions: SK-HEP1, 48 h
CWR22R = experiment: Antiproliferative activity against human 22Rv1 cells incubated for 48 hrs by SRB assay; format: functional, cell-based; conditions: 22Rv1, 48 h
DU-145 = experiment: Antiproliferative activity against human DU-145 cells incubated for 48 hrs by SRB assay; format: functional, cell-based; conditions: DU-145, 48 h
MKN-45 [5] = experiment: Inhibition of human MKN-45 cells colony formation incubated for 10 days by crystal violet staining based assay; format: functional, cell-based; conditions: dose 50-100 nM, time 10.0 day
[6] = biological target: Serine/threonine-protein kinase AKT (Homo sapiens) (UniProt P31751+Q9Y243+P31749); experiment: Inhibition of AKT phosphorylation in human MKN-45 cells by Western blot analysis; format: cell-based
Sequence of Serine/threonine-protein kinase AKT (Homo sapiens) (P31749 whole entry, looked up): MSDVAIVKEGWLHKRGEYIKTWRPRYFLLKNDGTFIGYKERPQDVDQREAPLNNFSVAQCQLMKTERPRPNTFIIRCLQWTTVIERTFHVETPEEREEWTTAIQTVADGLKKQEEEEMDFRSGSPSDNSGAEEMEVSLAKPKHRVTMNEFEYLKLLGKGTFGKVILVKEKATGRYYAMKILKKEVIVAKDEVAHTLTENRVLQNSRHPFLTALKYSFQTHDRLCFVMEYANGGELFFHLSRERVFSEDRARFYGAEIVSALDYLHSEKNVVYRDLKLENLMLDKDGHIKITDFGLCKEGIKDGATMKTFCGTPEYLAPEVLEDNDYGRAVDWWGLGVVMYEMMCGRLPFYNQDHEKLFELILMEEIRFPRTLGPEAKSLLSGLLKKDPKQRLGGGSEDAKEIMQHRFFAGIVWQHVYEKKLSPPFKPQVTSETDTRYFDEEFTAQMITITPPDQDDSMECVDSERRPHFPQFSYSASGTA
Sequence of Serine/threonine-protein kinase AKT (Homo sapiens) (P31751 whole entry, looked up): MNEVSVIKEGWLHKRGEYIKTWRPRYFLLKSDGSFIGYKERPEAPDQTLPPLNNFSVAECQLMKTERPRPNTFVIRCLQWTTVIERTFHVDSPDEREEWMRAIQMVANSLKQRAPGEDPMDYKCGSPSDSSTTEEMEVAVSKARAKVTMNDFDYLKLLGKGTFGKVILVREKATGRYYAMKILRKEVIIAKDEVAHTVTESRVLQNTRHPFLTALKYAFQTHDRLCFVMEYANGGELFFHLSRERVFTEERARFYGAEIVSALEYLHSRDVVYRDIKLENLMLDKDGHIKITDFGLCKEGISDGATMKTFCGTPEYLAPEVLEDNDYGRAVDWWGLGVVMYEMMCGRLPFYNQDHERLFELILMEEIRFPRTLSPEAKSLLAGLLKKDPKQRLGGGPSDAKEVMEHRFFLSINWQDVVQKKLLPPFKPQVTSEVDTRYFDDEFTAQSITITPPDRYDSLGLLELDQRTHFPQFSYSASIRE
Sequence of Serine/threonine-protein kinase AKT (Homo sapiens) (Q9Y243 whole entry, looked up): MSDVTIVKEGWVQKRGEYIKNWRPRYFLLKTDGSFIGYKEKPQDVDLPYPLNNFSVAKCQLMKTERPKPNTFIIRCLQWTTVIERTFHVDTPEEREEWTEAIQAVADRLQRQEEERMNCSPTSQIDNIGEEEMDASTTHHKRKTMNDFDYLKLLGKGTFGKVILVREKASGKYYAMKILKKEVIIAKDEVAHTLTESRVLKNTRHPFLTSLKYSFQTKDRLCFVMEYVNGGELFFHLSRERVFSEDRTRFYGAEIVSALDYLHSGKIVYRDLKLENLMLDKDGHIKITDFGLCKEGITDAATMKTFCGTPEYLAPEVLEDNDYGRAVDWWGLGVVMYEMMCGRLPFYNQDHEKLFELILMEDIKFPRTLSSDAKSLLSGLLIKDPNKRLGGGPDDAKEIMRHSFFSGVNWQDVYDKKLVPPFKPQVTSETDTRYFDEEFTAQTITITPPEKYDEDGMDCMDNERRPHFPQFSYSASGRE

MKN-45 [7] = experiment: Inhibition of epithelial mesenchymal transition in human MKN-45 cells assessed as upregulation in E-cadherin level by Western blotting analysis; format: functional, cell-based; conditions: dose 100-400 nM
MKN-45 [8] = experiment: Inhibition of epithelial mesenchymal transition in human MKN-45 cells assessed as downregulation in vimentin level by Western blotting analysis; format: functional, cell-based
MKN-45 [9] = experiment: Inhibition of epithelial mesenchymal transition in human MKN-45 cells assessed as downregulation in N-cadherin level by Western blotting analysis; format: functional, cell-based
MKN-45 [10] = experiment: Induction of apoptosis in human MKN-45 cells assessed as early apoptotic cells at 100 nM incubated for 48 hrs by Annexin V-FITC/PI staining based flow cytometry analysis (reference value: 0.5%); format: functional
MKN-45 [11] = experiment: Induction of apoptosis in human MKN-45 cells assessed as late apoptotic cells at 200 nM incubated for 48 hrs by Annexin V-FITC/PI staining based flow cytometry analysis (reference value: 2.6%); format: functional
MKN-45 [12] = experiment: Induction of apoptosis in human MKN-45 cells assessed as early apoptotic cells at 800 nM incubated for 48 hrs by Annexin V-FITC/PI staining based flow cytometry analysis (reference value: 0.5%); format: functional
CYP1A = CYP1A (Homo sapiens, UniProt P04798+P05177); experiment: Inhibition of CYP1A in human liver microsomes; format: ADME, Microsome
Cytochrome P450 2C9 = Cytochrome P450 2C9 (Homo sapiens, UniProt P11712); experiment: Inhibition of CYP2C9 in human liver microsomes; format: ADME, Microsome
Sequence of Cytochrome P450 2C9 (P11712 whole entry): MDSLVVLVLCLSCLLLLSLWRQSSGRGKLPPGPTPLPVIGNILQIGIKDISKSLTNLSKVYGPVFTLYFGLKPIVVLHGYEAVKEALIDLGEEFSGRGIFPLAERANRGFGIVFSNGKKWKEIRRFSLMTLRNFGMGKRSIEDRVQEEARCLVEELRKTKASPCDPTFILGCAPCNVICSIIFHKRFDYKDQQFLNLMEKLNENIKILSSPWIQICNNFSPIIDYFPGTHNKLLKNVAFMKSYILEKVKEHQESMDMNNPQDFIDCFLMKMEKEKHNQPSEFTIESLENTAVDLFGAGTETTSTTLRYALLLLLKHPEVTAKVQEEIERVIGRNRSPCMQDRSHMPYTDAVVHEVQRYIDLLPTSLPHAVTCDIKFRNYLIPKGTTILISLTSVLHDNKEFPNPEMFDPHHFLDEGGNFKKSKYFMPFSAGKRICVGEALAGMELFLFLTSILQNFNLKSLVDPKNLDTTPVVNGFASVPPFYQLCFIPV

Cytochrome P450 2C19 = Cytochrome P450 2C19 (Homo sapiens, UniProt P33261); experiment: Inhibition of CYP2C19 in human liver microsomes; format: ADME, Microsome
Cytochrome P450 2D6 = Cytochrome P450 2D6 (Homo sapiens, UniProt P10635); experiment: Inhibition of CYP2D6 in human liver microsomes; format: ADME, Microsome
Sequence of Cytochrome P450 2D6 (P10635 whole entry): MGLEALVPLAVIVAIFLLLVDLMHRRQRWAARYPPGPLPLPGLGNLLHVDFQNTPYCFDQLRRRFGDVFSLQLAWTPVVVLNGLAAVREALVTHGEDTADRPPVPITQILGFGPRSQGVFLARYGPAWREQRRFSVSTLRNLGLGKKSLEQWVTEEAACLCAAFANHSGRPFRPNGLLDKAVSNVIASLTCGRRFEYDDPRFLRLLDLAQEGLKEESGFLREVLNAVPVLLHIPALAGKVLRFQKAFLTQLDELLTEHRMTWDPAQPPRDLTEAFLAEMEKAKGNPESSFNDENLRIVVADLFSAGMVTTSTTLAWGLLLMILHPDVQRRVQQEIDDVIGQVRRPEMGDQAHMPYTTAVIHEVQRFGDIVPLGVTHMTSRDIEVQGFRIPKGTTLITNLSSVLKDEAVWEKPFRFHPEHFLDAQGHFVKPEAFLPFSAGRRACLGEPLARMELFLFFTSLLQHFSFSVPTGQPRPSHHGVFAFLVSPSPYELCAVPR

Cytochrome P450 3A4 = Cytochrome P450 3A4 (Homo sapiens, UniProt P08684); experiment: Inhibition of CYP3A4 in human liver microsomes; format: ADME, Microsome
Sequence of Cytochrome P450 3A4 (P08684 whole entry): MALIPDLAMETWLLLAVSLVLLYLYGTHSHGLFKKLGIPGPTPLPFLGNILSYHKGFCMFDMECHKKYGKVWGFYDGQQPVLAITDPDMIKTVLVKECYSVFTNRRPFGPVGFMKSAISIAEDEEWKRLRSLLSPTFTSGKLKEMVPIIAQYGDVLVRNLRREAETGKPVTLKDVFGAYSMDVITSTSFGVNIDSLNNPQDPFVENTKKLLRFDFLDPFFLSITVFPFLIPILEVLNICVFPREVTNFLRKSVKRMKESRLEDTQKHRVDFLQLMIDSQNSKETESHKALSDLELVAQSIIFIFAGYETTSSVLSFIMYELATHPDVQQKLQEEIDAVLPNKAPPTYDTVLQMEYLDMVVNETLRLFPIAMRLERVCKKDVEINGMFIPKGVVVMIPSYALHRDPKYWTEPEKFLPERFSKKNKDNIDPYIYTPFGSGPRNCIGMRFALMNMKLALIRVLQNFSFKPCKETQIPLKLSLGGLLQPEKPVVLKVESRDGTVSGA

hERG (KCNH2) = hERG (KCNH2) (Homo sapiens, UniProt Q12809); experiment: Inhibition of human ERG at 40 uM relative to control; format: toxicity
[13] = biological target: Voltage-gated inwardly rectifying potassium channel KCNH2 (Homo sapiens, UniProt Q12809); experiment: Inhibition of human ERG; format: toxicity
[14] = Cmax in ICR mouse at 1 mg/kg, iv; format: ADME, organism-based; set-up: dose 1 mg/kg, route iv; conditions: in vivo
[15] = Cmax in ICR mouse at 10 mg/kg, po; format: ADME, organism-based; set-up: dose 10 mg/kg, route po; conditions: in vivo
[16] = AUC(0 to t) in ICR mouse at 10 mg/kg, po; format: ADME, organism-based; set-up: dose 10 mg/kg, route po; conditions: in vivo
[17] = AUC(0 to infinity) in ICR mouse at 1 mg/kg, iv; format: ADME, organism-based; set-up: dose 1 mg/kg, route iv; conditions: in vivo
[18] = AUC(0 to infinity) in ICR mouse at 10 mg/kg, po; format: ADME, organism-based; set-up: dose 10 mg/kg, route po; conditions: in vivo
[19] = Half life in ICR mouse at 1 mg/kg, iv; format: ADME, organism-based; conditions: in vivo
[20] = Half life in ICR mouse at 10 mg/kg, po; format: ADME, organism-based; conditions: in vivo
[21] = Clearance in ICR mouse at 1 mg/kg, iv; format: ADME, organism-based; conditions: in vivo
[22] = Volume of distribution at steady state in ICR mouse at 1 mg/kg, iv; format: ADME, organism-based; conditions: in vivo, read-out: Vdss
[23] = Mean residence time in ICR mouse at 10 mg/kg, po; format: ADME, organism-based; conditions: in vivo
[24] = Oral bioavailability in ICR mouse at 10 mg/kg; format: ADME, organism-based; conditions: in vivo
MKN-45 [25] = experiment: Antitumor activity against human MKN-45 cells xenografted in BALB/c mouse assessed as tumor growth inhibition at 15 mg/kg/day, ip measured every 3 days for 21 days; format: functional; conditions: MKN-45, 504 h, time 21 day, read-out: TGI
MKN-45 [26] = experiment: Antitumor activity against human MKN-45 cells xenografted in BALB/c mouse assessed as tumor growth inhibition at 30 mg/kg/day, ip measured every 3 days for 21 days; format: functional; conditions: MKN-45, 504 h, time 21 day, read-out: TGI
[27] = Toxicity in BALB/c mouse assessed as change in body weight at 15 to 30 mg/kg, ip measured every 3 days for 21 days; format: organism-based; conditions: in vivo, 504 h, dose 15-30 mg/kg, time 21 day
[28] = Toxicity in BALB/c mouse assessed as change in lung morphology at 15 to 30 mg/kg, ip measured every 3 days for 21 days by HE staining based assay; format: organism-based; conditions: in vivo, 504 h, dose 15-30 mg/kg, time 21 day
[29] = Toxicity in BALB/c mouse assessed as change in liver morphology at 15 to 30 mg/kg, ip measured every 3 days for 21 days by HE staining based assay; format: organism-based; conditions: in vivo, 504 h, dose 15-30 mg/kg, time 21 day
[30] = Toxicity in BALB/c mouse assessed as change in heart morphology at 15 to 30 mg/kg, ip measured every 3 days for 21 days by HE staining based assay; format: organism-based; conditions: in vivo, 504 h, dose 15-30 mg/kg, time 21 day
[31] = Toxicity in BALB/c mouse assessed as change in spleen morphology at 15 to 30 mg/kg, ip measured every 3 days for 21 days by HE staining based assay; format: organism-based; conditions: in vivo, 504 h, dose 15-30 mg/kg, time 21 day

## CCc1nc(-c2ccc(OC)cc2)n(-c2cccc(C(=O)NCCCCn3nccn3)c2)n1
MKN-45 [1]
  IC50: 0.14 µM
[2]
  solubility: 272 µM (≈ 121 µg/mL)
[3]
  solubility: 258 µM (≈ 115 µg/mL)
Myoferlin
  Activity: Active
MKN-45 [4]
  Activity: inactive
BGC-823
  IC50: 0.29 µM
AGS
  IC50: 0.46 µM
SGC-7901
  IC50: 0.44 µM
MFC
  IC50: > 10 µM
ES-2
  IC50: 0.28 µM
BXPC-3
  IC50: 0.13 µM
SK-HEP1
  IC50: 0.75 µM
CWR22R
  IC50: > 10 µM
DU-145
  IC50: > 10 µM
MKN-45 [5]
  inhibition: Dose-Dependent Effect
[6]
  inhibition: Active
MKN-45 [7]
  inhibition: Dose-Dependent Effect
MKN-45 [8]
  inhibition: Dose-Dependent Effect
MKN-45 [9]
  inhibition: Dose-Dependent Effect
MKN-45 [10]
  Activity: 0.6%
MKN-45 [11]
  Activity: 4.7%
MKN-45 [12]
  Activity: 13.4%
CYP1A
  IC50: > 50 µM
Cytochrome P450 2C9
  IC50: 14.7 µM
Cytochrome P450 2C19
  IC50: 18.8 µM
Cytochrome P450 2D6
  IC50: > 50 µM
Cytochrome P450 3A4
  IC50: 35.1 µM
hERG (KCNH2)
  inhibition at 40 µM: 46.6%
[13]
  IC50: > 40 µM
[14]
  Cmax: 1.91 µg/mL
[15]
  Cmax: 5.82 µg/mL
[16]
  AUC(0-t): 4.92 µg·h/mL
[17]
  AUC(0-inf): 0.762 µg·h/mL
[18]
  AUC(0-inf): 4.94 µg·h/mL
[19]
  half-life: 13.2 min
[20]
  half-life: 38.4 min
[21]
  clearance: 1.32 L/h/kg
[22]
  Vd: 0.377 L/kg
[23]
  MRT: 40.3 min
[24]
  bioavailability: 65.5%
MKN-45 [25]
  inhibition in vivo at 15 mg/kg/day: 55.1%
MKN-45 [26]
  inhibition in vivo at 30 mg/kg/day: 68.5%
[27]
  Activity: Non-Toxic
[28]
  Activity: Non-Toxic
[29]
  Activity: Non-Toxic
[30]
  Activity: Non-Toxic
[31]
  Activity: Non-Toxic
